Laboratory results published in ChEMBL document CHEMBL3739270 (Medchemcomm, 2015).

Columns and labels:
Type in all cases: cell-based
CHO-K1 = test: Selectivity ratio, ratio of Ki for human melatonin receptor MT2 to Ki for human melatonin receptor MT1 expressed in CHO-K1 cells
CHO = test: Selectivity ratio, ratio of Ki for human melatonin receptor MT2 to Ki for human melatonin receptor MT1 expressed in CHO cells
[1] = biological target: T1, Melatonin receptor type 1B (Homo sapiens, UniProt P49286); test: Displacement of 2-[125I]-iodomelatonin from human melatonin receptor MT2 expressed in CHO cells after 1 hr by gamma counting analysis
T1 sequence (P49286 whole entry): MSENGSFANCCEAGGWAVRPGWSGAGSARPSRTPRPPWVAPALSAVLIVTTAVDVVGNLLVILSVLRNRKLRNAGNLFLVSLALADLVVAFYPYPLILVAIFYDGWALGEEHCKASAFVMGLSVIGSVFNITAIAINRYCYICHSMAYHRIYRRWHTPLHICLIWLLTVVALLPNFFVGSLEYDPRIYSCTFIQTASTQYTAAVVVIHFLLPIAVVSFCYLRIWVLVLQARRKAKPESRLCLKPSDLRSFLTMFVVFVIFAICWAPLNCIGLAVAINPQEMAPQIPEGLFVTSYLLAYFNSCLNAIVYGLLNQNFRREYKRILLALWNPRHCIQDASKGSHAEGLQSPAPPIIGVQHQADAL

[2] = biological target: Melatonin receptor type 1A (Homo sapiens, UniProt P48039); test: Displacement of 2-[125I]-iodomelatonin from human melatonin receptor MT1 expressed in CHO cells after 1 hr by gamma counting analysis
HEK293 = test: Selectivity ratio, ratio of Ki for human melatonin receptor MT2 to Ki for human melatonin receptor MT1 expressed in HEK293 cells

Chain of Melatonin receptor type 1A (P48039 whole entry): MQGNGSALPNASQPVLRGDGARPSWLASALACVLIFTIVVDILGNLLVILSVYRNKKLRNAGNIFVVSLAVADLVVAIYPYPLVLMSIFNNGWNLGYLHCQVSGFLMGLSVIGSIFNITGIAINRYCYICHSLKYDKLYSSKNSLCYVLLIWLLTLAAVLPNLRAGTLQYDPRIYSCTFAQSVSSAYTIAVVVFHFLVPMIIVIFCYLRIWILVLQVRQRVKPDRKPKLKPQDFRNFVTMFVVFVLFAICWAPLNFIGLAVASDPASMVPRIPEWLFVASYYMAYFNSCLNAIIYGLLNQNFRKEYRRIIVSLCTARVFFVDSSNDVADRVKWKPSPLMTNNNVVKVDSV

SMILES	Ki ([1]; read-out: Ki)	Ki ([2]; read-out: Ki)	also measured
O=C(NCCCc1cccc2nc(CCCCc3ccccc3)oc12)C1CC1			Ratio Ki (CHO-K1): 30
CCCCCCOc1ccc2c(c1)C(CCNC(C)=O)CCO2 (stereo not drawn)			Ratio Ki (CHO-K1): 30
O=C(NCCc1cccc2ccc(OCCCOc3ccc4cccc(CCNC(=O)C(F)F)c4c3)cc12)C(F)F	8.1 nM	1.2 nM	Ratio Ki (CHO): 7
CC(=O)NCCc1cccc2ccc(OCCCCOc3ccc4cccc(CCNC(C)=O)c4c3)cc12			Ratio Ki (HEK293): 120
O=C(NCCc1c[nH]c2ccc(OCCCOc3ccccc3)cc12)C(F)F	7.8 nM	6.2 nM	Ratio Ki (CHO): 10
O=C(NCCc1cccc2ccc(OCCCCOc3ccc4cccc(CCNC(=O)C(F)F)c4c3)cc12)C(F)F	15 nM	12 nM	
CC(=O)NCCc1cccc2ccc(OCCCCc3ccccc3)cc12	9 nM	9 nM	
CC(=O)NCCc1cccc2ccc(OCCCOc3ccccc3)cc12	44 nM	35 nM	

The remaining compounds from weak to strong by Ki ([2]; read-out: Ki), led by results:

Ki ([1]; read-out: Ki)	Ki ([2]; read-out: Ki)	SMILES	also measured
	112 nM	CC(=O)NCCc1cccc2ccc(OCCCOc3ccc4cccc(CCNC(C)=O)c4c3)cc12	Ki ([1]; read-out: pKi (converted)): 355 nM
9 nM	9 nM	CC(=O)NCCc1cccc2ccc(OCCCc3ccccc3)cc12	Ki ([1]; read-out: pKi (converted)): 21.4 nM; Ki ([2]; read-out: pKi (converted)): 25.1 nM
2 nM	5 nM	COc1ccc2cccc(CCNC(=O)C(F)(F)F)c2c1	
2 nM	5 nM	COc1ccc2cccc(CCNC(=O)C(Cl)Cl)c2c1	
0.85 nM	0.054 nM	COc1ccc2cccc(CCNC(=O)C(F)F)c2c1	Ratio Ki (CHO): 16
